What all share (type): biochemical
For one assay, the target named is T1, USP8 (Homo sapiens, UniProt P40818).
T1 construct: (1-1118); purchased Ubiquigent 64-0053-050
T1 sequence (P40818 1-1118): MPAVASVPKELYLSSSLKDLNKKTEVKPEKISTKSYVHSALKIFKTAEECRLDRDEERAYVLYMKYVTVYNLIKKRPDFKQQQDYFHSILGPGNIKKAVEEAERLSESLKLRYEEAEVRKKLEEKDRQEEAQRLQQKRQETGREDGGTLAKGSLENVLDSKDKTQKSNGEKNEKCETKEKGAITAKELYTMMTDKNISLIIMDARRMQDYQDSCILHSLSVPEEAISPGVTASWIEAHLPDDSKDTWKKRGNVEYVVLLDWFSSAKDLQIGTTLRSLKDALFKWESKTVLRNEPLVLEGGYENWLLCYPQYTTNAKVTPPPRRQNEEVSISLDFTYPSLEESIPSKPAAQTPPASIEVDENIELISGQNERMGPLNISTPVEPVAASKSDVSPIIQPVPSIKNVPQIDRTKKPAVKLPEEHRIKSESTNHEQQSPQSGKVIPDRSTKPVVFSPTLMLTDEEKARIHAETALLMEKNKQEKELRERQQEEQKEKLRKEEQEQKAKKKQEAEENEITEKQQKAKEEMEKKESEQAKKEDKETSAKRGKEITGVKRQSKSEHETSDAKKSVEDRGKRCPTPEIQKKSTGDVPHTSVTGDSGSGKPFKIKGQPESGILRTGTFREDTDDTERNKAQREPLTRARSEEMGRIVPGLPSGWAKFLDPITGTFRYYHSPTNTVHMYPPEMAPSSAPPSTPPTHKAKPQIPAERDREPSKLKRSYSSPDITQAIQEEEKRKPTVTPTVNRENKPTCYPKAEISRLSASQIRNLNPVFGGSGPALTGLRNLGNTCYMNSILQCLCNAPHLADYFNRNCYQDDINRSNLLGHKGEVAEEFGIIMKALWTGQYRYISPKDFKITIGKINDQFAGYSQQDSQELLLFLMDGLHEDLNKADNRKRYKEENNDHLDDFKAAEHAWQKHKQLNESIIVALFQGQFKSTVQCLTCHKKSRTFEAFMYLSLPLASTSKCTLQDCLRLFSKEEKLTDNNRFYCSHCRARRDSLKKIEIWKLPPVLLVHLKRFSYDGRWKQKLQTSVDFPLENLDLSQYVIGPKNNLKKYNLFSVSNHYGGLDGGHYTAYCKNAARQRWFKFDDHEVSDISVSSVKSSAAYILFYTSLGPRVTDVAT
Kind of assay: High-throughput screening, Ub-RhoMP, single dose 1.25 µM. The settings on record: for %inhibition USP8: crude in-plate synthesized compound, 1.25 µM assuming full conversion; for BB %inhibition USP8: individual amine building block (plate NCN-5). The protocol: (§1) Since the in‐plate synthesis was conducted in 1536‐well Echo plates, the compounds could readily be transferred from these plates into 1536‐well assay plates using acoustic liquid dispensing (Figure 2a) and subjected to HTS. We screened the whole 7536 compound library against a panel of twelve enzymes, including three DUBs from the UCH family, two DUBs from the OTU family, five DUBs from the USP family, plus ISG15 protease USP18, and SUMO protease SENP1. Each compound was tested at a single dose of 1.25 µM, assuming full conversion (10 mM in DMSO of the formed products) during the in‐plate synthesis, using the fluorogenic assay described above. […] The compounds are sorted by the amine building blocks (BB1‐16), and within each BB, sorted by carboxylic acid (CA1‐471), thereby providing a comprehensive and systematic overview of the overall inhibition by each BB and CA combination. Some interesting patterns can be obtained from this map. […] Indeed, BB10 is the privileged scaffold for UCHL1 as it originates from UCHL1 inhibitor 5 (Figure 1). […] On the other hand, OTUD1 and USP32 show a much higher hit rate, and this is even more pronounced for USP30 and ISG15 protease mUSP18, each showing many active compounds distributed over several BB's.
(§2) Purified recombinant enzymes used in this study
(§3) High-throughput screening
(§4) The screens were performed at room temperature in “flat bottom, non-treated, black […]
(§5) µM. The compounds (10 nL each) were transferred from the 1 mM daughter plates to the […]
(§6) Four wells containing DMSO
(§7) (10 nL) and four wells containing NEM (10 mM final concentration) were used in each plate […]
(§8) solution (1.33x final concentration) was added to each well, followed by incubation for 30 min.
(§9) Next, 2 µL of a substrate solution (4x final concentration) was added to each well (Ub-RhoMP[2]
(§10) After 1h or 2h incubation the
(§11) The percentage inhibition was calculated for each well using the […]
(§12) Where FIx is the fluorescence intensity of each well, FIpos is the average fluorescence intensity of the positive (NEM) control wells, and FIneg is the average fluorescence intensity of the negative (DMSO) control wells.

For another assay, the target named is T2, USP30 (Homo sapiens, UniProt Q70CQ3).
T2 sequence (Q70CQ3 57-517): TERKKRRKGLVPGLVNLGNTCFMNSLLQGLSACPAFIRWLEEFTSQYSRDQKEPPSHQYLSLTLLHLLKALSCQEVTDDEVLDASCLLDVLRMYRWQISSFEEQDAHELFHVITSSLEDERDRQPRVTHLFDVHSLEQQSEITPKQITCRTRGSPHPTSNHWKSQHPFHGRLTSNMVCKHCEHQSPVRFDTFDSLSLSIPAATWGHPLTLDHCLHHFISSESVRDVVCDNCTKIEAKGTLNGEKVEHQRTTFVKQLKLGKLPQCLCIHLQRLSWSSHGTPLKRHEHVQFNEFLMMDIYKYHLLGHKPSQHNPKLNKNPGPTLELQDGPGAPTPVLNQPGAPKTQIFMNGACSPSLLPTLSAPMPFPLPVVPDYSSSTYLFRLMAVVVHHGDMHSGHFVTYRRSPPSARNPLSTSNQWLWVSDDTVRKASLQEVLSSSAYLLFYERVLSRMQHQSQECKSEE
Described as above. Also on record: USP30 CD (57-517); purchased Ubiquigent 64-0057-050. As to conditions: for %inhibition USP30: crude in-plate synthesized compound, 1.25 µM assuming full conversion; for BB %inhibition USP30: individual amine building block (plate NCN-5). As to the method: as §1, §2, §3, §4, §5, §6, §7, §8, §9, §10, §11, §12

The next assay has as its target T3, SENP1 (Homo sapiens, UniProt Q9P0U3).
T3 sequence (Q9P0U3 419-644): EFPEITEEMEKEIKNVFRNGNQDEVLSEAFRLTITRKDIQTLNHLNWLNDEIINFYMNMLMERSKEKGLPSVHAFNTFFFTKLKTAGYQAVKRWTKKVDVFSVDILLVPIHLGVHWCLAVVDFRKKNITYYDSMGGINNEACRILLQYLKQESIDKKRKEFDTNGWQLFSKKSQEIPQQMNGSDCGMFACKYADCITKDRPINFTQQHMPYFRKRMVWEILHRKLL
Kind of assay: High-throughput screening, single dose 1.25 µM. As to conditions: for %inhibition SENP1: crude in-plate synthesized compound, 1.25 µM assuming full conversion; for inhibition at 1.25 µM: individual amine building block (plate NCN-5), read-out: BB %inhibition SENP1. The protocol:
as §1, §2, §3, §4, §5, §6, §7, §8, §9, §10, §11, §12

Where “and” joins values, the source holds several entries; their conditions need not be identical. Equal values may be shown once.

The text below walks through data of publication PMC12668310, “High‐Throughput Synthesis and Screening of a Cyanimide Library Identifies Selective Inhibitors of ISG15‐Specific Protease mUSP18” (Angewandte Chemie (International Ed. in English), 2025).

With `N#CN1CC[C@@H](NC(=O)c2nc(N3CCCC3)ncc2Cl)C1` [BB01CA90], the “%inhibition USP8” value at USP8 was determined as 29.2%. Further, the “%inhibition USP30” value at USP30 was determined as 54.5%. Moreover, on SENP1, the “%inhibition SENP1” value was found to be 16.6%.
For `N#CN1CC[C@@H](NC(=O)C(Cc2c[nH]cn2)NS(=O)(=O)c2ccc(Cl)cc2)C1` (stereo partly drawn) [BB01CA91], the “%inhibition USP8” value on USP8 is given as 28.4%. The “%inhibition USP30” value at USP30 was found to be 36.0%. Further, on SENP1, the “%inhibition SENP1” value is given as 13.2%.
On to `N#CN1CC[C@@H](NC(=O)Cc2csc(-c3cnccn3)n2)C1` [BB01CA92], for which the “%inhibition USP8” value on USP8 is on record as 32.5%. In addition, the “%inhibition USP30” value on USP30 was 65.3%. Moreover, at SENP1, the “%inhibition SENP1” value is 12.8%.
For `N#CN1CC[C@@H](NC(=O)CCN(Cc2ccccc2)S(=O)(=O)c2c(Cl)cccc2Cl)C1` [BB01CA93], the “%inhibition USP8” value on USP8 worked out at 33.0%. At USP30, the “%inhibition USP30” value turned out to be 101.1%. In addition, the “%inhibition SENP1” value at SENP1 turned out to be 8.6%.
As for `N#CN1CC[C@@H](NC(=O)c2ncoc2-c2cccs2)C1` [BB01CA94], the “%inhibition USP8” value at USP8 stood at 24.1%. For the same compound, at USP30, the “%inhibition USP30” value came to 73.0%. On SENP1, the “%inhibition SENP1” value is reported as 8.5%.
As for `N#CN1CC[C@@H](N)C1` [BB1], the “BB %inhibition USP8” value at USP8 came to 9.1%. Also, the “BB %inhibition USP30” value at USP30 was determined as 5.9%. Besides, the inhibition (commonly the change of the read-out against control, counted positive when it falls) at 1.25 µM on SENP1 came out at 1.3%.
For `N#CN1CCC(N)CC1` [BB2], the “BB %inhibition USP8” value at USP8 stood at 1.0%. Further, the “BB %inhibition USP30” value at USP30 turned out to be 4.8%. Moreover, the inhibition at 1.25 µM on SENP1 is -2.9%.
Taken in the same sequence, the figures for `N#CN1CC[C@H](N)C1` [BB3] were 3.6%, 3.7% and -1%.
Turning to `N#CN1CCC[C@@H](N)C1` [BB4], the “BB %inhibition USP8” value on USP8 worked out at 5.3%. Moreover, the “BB %inhibition USP30” value on USP30 is 5.1%. Also, the inhibition at 1.25 µM on SENP1 is -2.1%.
With `N#CN1CC(N)C1` [BB5], the “BB %inhibition USP8” value at USP8 is 1.7%. In addition, on USP30, the “BB %inhibition USP30” value was -0.656%. For the same compound, the inhibition at 1.25 µM at SENP1 was -5.2%.
Taken in the same sequence, the figures for `N#CN1C[C@H]2C[C@@H](N)C[C@H]2C1` [BB6] were -1.3%, -0.126% and -9%.
In the case of `N#CN1C[C@H]2C[C@H](N)C[C@H]2C1` [BB7], at USP8, the “BB %inhibition USP8” value is on record as -1.7%. Besides, on USP30, the “BB %inhibition USP30” value was -2.3%. At SENP1, the inhibition at 1.25 µM is -11.7%.
The corresponding values for `N#CN1CCC[C@H](N)C1` [BB8] are 1.5%, -2.4% and 0.5%.
Turning to `N#CN1CC[C@@H](NC(=O)c2ccc(CN)cc2)C1` [BB9], the “BB %inhibition USP8” value at USP8 is listed as 20.0%. At USP30, the “BB %inhibition USP30” value is ~35% and 31.5%. The inhibition at 1.25 µM on SENP1 was -5%.
For `N#CN1CC[C@H](C(=O)Nc2nc3c(s2)CNCC3)C1` [BB10], the “BB %inhibition USP8” value on USP8 came to 0.105%. The “BB %inhibition USP30” value at USP30 was -2.0%. Also, the inhibition at 1.25 µM at SENP1 is -5.4%.
The corresponding values for `N#CN1CC[C@H](CN)C1` [BB11] are -2.4%, -5.7% and -12.3%.
Take `N#CN1C[C@@H]2C[C@H]1CN2` [BB12]: the “BB %inhibition USP8” value at USP8 is listed as -2.5%. For the same compound, at USP30, the “BB %inhibition USP30” value is -3.6%. The inhibition at 1.25 µM on SENP1 is -9.2%.
Taken in the same sequence, the figures for `N#CN1C[C@H](N)[C@@H](O)C1` [BB13] were 0.0%, 7.5% and 10.1%.
Regarding `N#CN1CCC2(CCNC2)C1` (stereo not drawn) [BB14], the “BB %inhibition USP8” value on USP8 is 7.8%. At USP30, the “BB %inhibition USP30” value stood at 3.9%. For the same compound, the inhibition at 1.25 µM on SENP1 turned out to be 8.7%.
Turning to `N#CN1C[C@@H](F)[C@@H](N)C1` [BB15], the “BB %inhibition USP8” value at USP8 was found to be 2.7%. For the same compound, the “BB %inhibition USP30” value on USP30 is listed as -2.2%. At SENP1, the inhibition at 1.25 µM amounted to 0.022%.
Taken in the same sequence, the figures for `N#CN1CCC(n2cc(N)cn2)CC1` [BB16] were -3.5%, 0.9% and 4%.
